According to US10759785B2, “Compounds” (ENTERPRISE THERAPEUTICS LIMITED, priority 2016, dated 2020):

Legend:
Type in all cases: in vitro ADME
[1] = Microsomal stability (human microsomes); details: pH 7.4, 1 μM test compound, 0.5 mg/mL protein, 1 mM NADPH, 37° C., read-out: Averages. Mic Half Life Human
Protocol: (§1) Example 28—Microsomal Stability
(§2) Microsomes (rat and human) were obtained from Bioreclamation. Test compound stock solutions in DMSO (10 mM) were diluted with DMSO to 2 mM. Further dilution was completed to achieve a 100 μM stock (final concentrations; 91.5% Acetonitrile: 8.5% DMSO). Final test compound concentration in incubation was 1 μM (<0.1% DMSO). The following probe substrates were used: verapamil, propranolol, metoprolol and phenacetin (rat) at a final incubation concentration of 1 μM. Assay buffer—Solution 1: 17.4 g potassium phosphate dibasic anhydrous (K2HPO4, 0.1 M) dissolved in 1 L deionised water. Solution 2: 13.6 g potassium phosphate monobasic anhydrous (KH2PO4, 0.1 M) dissolved in 1 L deionised water. Potassium phosphate solutions 1 and 2 were combined to form a pH 7.42 solution at 37° C. pH 7.4 with 2 mM magnesium chloride. NADPH (10 mM)—diluted in deionised water. Frozen microsomes were thawed at 37° C. Microsomes were diluted in assay buffer to achieve a final protein concentration of 0.5 mg/mL and 1 mM NADPH. The following procedure was completed on a Perkin Elmer Janus robotic platform in 96 well format: The microsomal incubation plate was transferred to a heater shaker at 300 rpm and solution heated to 37° C. for 10 min pre-warm. A no co-factor control at 0 and 45 min and one replicates of each test compound was included in every assay. Microsomes were incubated at 37° C., on a shaker set at 300 rpm throughout the assay. At each timepoint (0, 5, 15, 30, 45 min) 50 μL of sample was removed from the 96-well and added to 200 μL of quench solution (acetonitrile containing 0.1% formic acid and imipramine/labetalol, 200 nM). Samples were diluted 1:1 with water using the Janus Robot and analysed by LC-MS/MS.

[2] = Microsomal stability (rat microsomes); details: pH 7.4, 1 μM test compound, 0.5 mg/mL protein, 1 mM NADPH, 37° C., read-out: Averages. Mic Half Life Rat
Protocol: as §1, §2

[3] = Hepatic stability (human cryopreserved hepatocytes); details: 1×10^6 cells/mL, 37° C.; for half-life at 1 μM: cryopreserved hepatocytes, pH 7.4, 1 μM test compound, read-out: Averages. Hep Half Life Human
Protocol: Example 29—Hepatic Stability
Cryopreserved hepatocytes (rat and human) were obtained from Bioreclamation. Test compound stock solutions in DMSO (10 mM) were diluted with DMSO to 4 mM. Further dilution was completed to achieve a 100 μM stock (5 μL of 4 mM in 195 μL of 50:50 DMSO:hepatocyte buffer). Final test compound concentration in incubation was 1 μM. The following probe substrates were used: testosterone and carbamazepine at a final incubation concentration of 1 μM. Hepatocyte buffer was prepared (Williams E media containing phenol red and Glutamax™, 15 mM HEPES, warmed to 37° C., pH7.4 with NaOH). Cells were removed from liquid nitrogen, thawed in a waterbath, decanted into 50 mL of pre-warmed Cryopreserved Hepatocyte Recovery Media (LifeTechnologies) and centrifuged. Supernatant fraction was removed, cells were re-suspended in hepatocyte buffer and counted by trypan blue exclusion. Cell viability of >80% was required for all assays. Cells were re-suspended to 1×10^6/mL and 198 μL cell suspension added to each 96-well. 2 μL of 100 μM compound stock solution was added to relevant wells to initiate the incubation. A no cell control and two replicates of each test compound was included in every assay. Cells were incubated at 37° C., on a shaker set at 300 rpm. At each timepoint (0, 15, 30, 45, 60, 90 min) 20 μL of sample was removed from the 96-well and added to 80 μL of quench solution (acetonitrile containing 0.1% formic acid and imipramine/labetalol, 200 nM). Samples were diluted 1:1 with water using the Janus Robot and analysed by LC-MS/MS.

SMILES | half-life at 1 μM [1] | half-life at 1 μM [2] | Averages. Hep Half Life Human ([3]; 1 μM test compound) | half-life at 1 μM [3]
CCn1c(CNC(=O)c2nc(Br)cnc2N)[n+](CCO)c2ccc(OC)cc21.O=C[O-] [Example 3, 2-{[(3-amino-6-bromopyrazin-2-yl)formamido]methyl}-1-ethyl-3-(2-hydroxyethyl)-6-methoxy-1H-1,3-benzodiazol-3-ium formate] | 89 min | 4 min | 240 min | –
CCn1c(CNC(=O)c2nc(Cl)cnc2N)[n+](C)c2ccc(OC)cc21.[I-] [Example 5, 2-{[(3-amino-6-chloropyrazin-2-yl)formamido]methyl}-1-ethyl-6-methoxy-3-methyl-1H-1,3-benzodiazol-3-ium iodide] | 12 min | 4 min | – | 68 min
CCn1c(CNC(=O)c2nc(C)cnc2N)[n+](C)c2ccc(OC)cc21.[I-] [Example 7, 2-{[(3-amino-6-methylpyrazin-2-yl)formamido]methyl}-1-ethyl-6-methoxy-3-methyl-1H-1,3-benzodiazol-3-ium iodide] | 22 min | 7 min | – | 129 min
CCn1c(CNC(=O)c2nc(Br)cnc2N)[n+](CC)c2ccc(-c3cnn(C4CCN(C(=O)OC(C)(C)C)CC4)c3)cc21.[I-] [Example 20, 2-{[(3-amino-6-bromopyrazin-2-yl)formamido]methyl}-6-(1-{1-[(tert-butoxy)carbonyl]piperidin-4-yl}-1H-pyrazol-4-yl)-1,3-diethyl-1H-1,3-benzodiazol-3-ium iodide] | > 138 min | 61 min | – | 70 min
